Test results: ChEMBL document CHEMBL5154883, “Conformational Constrained 4-(1-Sulfonyl-3-indol)yl-2-phenylaminopyrimidine Derivatives as New Fourth-Generation Epidermal Growth Factor Receptor Inhibitors Targeting T790M/C797S Mutations” (J Med Chem, 2022)

How the values were obtained:
[1] = molecular target: Epidermal growth factor receptor (Homo sapiens, UniProt P00533, C797S/EX19DEL/T790M); assay: Inhibition of EGFR 19 del/T790M/C797S mutant (unknown origin) by ELISA
[2] = molecular target: Epidermal growth factor receptor (Homo sapiens, UniProt P00533, C797S/L858R/T790M); assay: Inhibition of EGFR L858R/T790M/C797S mutant (unknown origin) by ELISA
[3] = molecular target: Epidermal growth factor receptor (Homo sapiens, UniProt P00533, L858R/T790M); assay: Inhibition of EGFR L858R/T790M mutant (unknown origin) by ELISA
[4] = molecular target: Epidermal growth factor receptor (Homo sapiens, UniProt P00533); assay: Inhibition of wild type EGFR (unknown origin) by ELISA
[5] = tested on: A-431; assay: Antiproliferative activity against human A-431 cells harboring wild type EGFR assessed as reduction in cell viability incubated for 72 hrs by CCK-8 assay; type: functional, cell-based; settings: A-431, 72 h
[6] = tested on: BaF3; assay: Antiproliferative activity against mouse BaF3 cells harboring EGFR 19 del/T790M/C797S mutant assessed as reduction in cell viability incubated for 72 hrs by CCK8 assay; type: functional, cell-based; settings: BaF3, 72 h
[7] = tested on: PC-9; assay: Antiproliferative activity against human osimertinib-resistant PC-9 cells harboring EGFR 19 del/T790M/C797S mutant assessed as reduction in cell viability incubated for 72 hrs by CCK-8 assay; type: functional, cell-based; settings: PC-9, 72 h
[8] = tested on: BaF3; assay: Antiproliferative activity against mouse BaF3 cells stably expressing EGFR L858R/T790M/C797S mutant assessed as inhibition of cell growth incubated for 72 hrs by CCK-8 assay; type: functional, cell-based; settings: BaF3, 72 h
[9] = Cytotoxicity against mouse IL-3 dependent BaF3 cells assessed as inhibition of cell growth incubated for 72 hrs by CCK-8 assay; type: toxicity, cell-based; settings: BaF3 cells (IL-3 dependent)
[10] = tested on: Epidermal growth factor receptor (Homo sapiens), P04626+P00533+Q15303+P21860 [L858R,T790M,C797S]; assay: Inhibition of EGFR L858R/T790M/[…] mutant in mouse starved BaF3 cells assessed as reduction in EGFR phosphorylation incubated for 120 mins followed by EGF stimulation for 15 mins by Western blot analysis; type: cell-based; settings: time 135.0 min, DDE = dose-dependent effect
[11] = tested on: BaF3; assay: Inhibition of EGFR 19del/T790M/[…] mutant in mouse starved BaF3 cells assessed as reduction in EGFR phosphorylation incubated for 120 mins followed by EGF stimulation for 15 mins by Western blot analysis; type: cell-based; settings: time 135.0 min, DDE = dose-dependent effect
[12] = tested on: Epidermal growth factor receptor (Homo sapiens), P00533 [UNDEFINED MUTATION]; assay: Inhibition of EGFR 19 del/T790M/C797S mutant in human starved osimertinib-resistant PC-9 cells assessed as reduction in EGFR phosphorylation incubated for 120 mins followed by EGF stimulation for 15 mins by Western blot analysis; type: cell-based; settings: time 135.0 min, DDE = dose-dependent effect
[13] = tested on: Epidermal growth factor receptor (Homo sapiens), P04626+P00533+Q15303+P21860 [L858R,T790M,C797S]; assay: Inhibition of EGFR L858R/T790M/[…] mutant in mouse starved BaF3 cells assessed as reduction in ERK phosphorylation incubated for 120 mins followed by EGF stimulation for 15 mins by Western blot analysis; type: cell-based; settings: time 135.0 min, DDE = dose-dependent effect
[14] = tested on: BaF3; assay: Inhibition of EGFR 19del/T790M/[…] mutant in mouse starved BaF3 cells assessed as reduction in ERK phosphorylation incubated for 120 mins followed by EGF stimulation for 15 mins by Western blot analysis; type: cell-based; settings: time 135.0 min, DDE = dose-dependent effect
[15] = tested on: Epidermal growth factor receptor (Homo sapiens), P00533 [UNDEFINED MUTATION]; assay: Inhibition of EGFR 19 del/T790M/C797S mutant in human starved osimertinib-resistant PC-9 cells assessed as reduction in ERK phosphorylation incubated for 120 mins followed by EGF stimulation for 15 mins by Western blot analysis; type: cell-based; settings: time 135.0 min, DDE = dose-dependent effect

Chain of Epidermal growth factor receptor (Homo sapiens, UniProt P00533, C797S/EX19DEL/T790M) (P00533 whole entry, looked up, stated change not applied): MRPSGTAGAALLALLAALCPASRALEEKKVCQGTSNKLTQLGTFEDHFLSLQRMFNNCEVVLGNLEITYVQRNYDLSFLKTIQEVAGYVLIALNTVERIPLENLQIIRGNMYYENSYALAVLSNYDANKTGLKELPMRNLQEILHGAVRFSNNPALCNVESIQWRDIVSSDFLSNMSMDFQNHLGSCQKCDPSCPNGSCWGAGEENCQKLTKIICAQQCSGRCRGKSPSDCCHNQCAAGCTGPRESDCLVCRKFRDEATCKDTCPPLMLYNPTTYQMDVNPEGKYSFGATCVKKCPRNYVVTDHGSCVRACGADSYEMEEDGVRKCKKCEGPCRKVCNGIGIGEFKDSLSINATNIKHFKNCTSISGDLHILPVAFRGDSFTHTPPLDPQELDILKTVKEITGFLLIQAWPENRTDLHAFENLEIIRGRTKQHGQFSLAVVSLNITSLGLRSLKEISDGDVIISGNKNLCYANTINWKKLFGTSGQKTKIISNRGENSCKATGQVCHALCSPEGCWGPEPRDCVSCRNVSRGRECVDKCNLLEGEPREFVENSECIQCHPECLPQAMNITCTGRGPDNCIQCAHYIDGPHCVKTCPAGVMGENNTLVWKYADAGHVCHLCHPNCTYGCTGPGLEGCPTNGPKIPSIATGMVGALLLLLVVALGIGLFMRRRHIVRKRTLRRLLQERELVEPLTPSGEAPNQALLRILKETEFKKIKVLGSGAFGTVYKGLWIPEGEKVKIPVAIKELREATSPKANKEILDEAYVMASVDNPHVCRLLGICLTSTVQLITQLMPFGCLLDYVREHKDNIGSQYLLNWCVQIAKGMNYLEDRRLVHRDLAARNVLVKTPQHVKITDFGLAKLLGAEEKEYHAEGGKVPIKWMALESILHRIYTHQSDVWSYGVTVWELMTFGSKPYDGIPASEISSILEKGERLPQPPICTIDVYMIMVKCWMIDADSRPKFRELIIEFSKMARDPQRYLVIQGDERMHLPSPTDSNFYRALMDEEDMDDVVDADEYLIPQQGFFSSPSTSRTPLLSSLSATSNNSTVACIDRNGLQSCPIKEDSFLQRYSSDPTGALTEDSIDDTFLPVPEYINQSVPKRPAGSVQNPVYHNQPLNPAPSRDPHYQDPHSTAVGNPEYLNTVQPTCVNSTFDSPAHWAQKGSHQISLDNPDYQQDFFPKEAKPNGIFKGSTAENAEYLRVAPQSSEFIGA
Chain of Epidermal growth factor receptor (Homo sapiens, UniProt P00533) (P00533 whole entry): as the sequence (P00533 whole entry, looked up, stated change not applied) above
Chain of Epidermal growth factor receptor (Homo sapiens, UniProt P00533, C797S/L858R/T790M) (P00533 25-1210 T790M/C797S/L858R limits assumed): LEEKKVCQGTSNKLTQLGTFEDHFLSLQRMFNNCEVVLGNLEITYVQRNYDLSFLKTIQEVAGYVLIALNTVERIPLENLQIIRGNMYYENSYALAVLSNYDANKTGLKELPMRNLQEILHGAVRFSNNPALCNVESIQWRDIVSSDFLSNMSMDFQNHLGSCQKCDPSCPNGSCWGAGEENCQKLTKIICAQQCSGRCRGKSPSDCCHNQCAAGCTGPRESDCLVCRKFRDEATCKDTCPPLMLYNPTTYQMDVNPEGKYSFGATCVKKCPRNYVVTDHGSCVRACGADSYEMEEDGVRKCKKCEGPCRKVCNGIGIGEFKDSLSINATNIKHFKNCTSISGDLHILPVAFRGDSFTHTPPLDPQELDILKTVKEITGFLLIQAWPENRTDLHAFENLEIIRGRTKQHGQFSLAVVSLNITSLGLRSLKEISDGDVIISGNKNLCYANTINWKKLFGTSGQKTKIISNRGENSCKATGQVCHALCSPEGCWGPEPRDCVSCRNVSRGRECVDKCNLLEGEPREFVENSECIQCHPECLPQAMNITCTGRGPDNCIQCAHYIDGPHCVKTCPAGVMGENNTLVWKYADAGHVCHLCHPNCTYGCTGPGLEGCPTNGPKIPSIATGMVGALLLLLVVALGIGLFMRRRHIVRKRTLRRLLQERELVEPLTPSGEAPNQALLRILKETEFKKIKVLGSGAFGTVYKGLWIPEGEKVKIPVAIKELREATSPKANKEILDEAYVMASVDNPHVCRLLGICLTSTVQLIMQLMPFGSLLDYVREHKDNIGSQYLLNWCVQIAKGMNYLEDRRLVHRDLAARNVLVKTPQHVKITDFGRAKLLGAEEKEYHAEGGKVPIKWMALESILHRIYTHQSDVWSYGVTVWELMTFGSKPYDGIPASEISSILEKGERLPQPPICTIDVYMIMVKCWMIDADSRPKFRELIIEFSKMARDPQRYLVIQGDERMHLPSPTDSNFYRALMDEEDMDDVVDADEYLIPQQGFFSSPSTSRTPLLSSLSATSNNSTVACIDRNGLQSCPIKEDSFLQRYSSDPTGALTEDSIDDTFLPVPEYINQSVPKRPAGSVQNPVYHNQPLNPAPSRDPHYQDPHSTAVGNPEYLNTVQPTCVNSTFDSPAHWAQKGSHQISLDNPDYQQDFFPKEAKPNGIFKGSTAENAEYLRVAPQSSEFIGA
Chain of Epidermal growth factor receptor (Homo sapiens, UniProt P00533, L858R/T790M) (P00533 25-1210 T790M/L858R limits assumed): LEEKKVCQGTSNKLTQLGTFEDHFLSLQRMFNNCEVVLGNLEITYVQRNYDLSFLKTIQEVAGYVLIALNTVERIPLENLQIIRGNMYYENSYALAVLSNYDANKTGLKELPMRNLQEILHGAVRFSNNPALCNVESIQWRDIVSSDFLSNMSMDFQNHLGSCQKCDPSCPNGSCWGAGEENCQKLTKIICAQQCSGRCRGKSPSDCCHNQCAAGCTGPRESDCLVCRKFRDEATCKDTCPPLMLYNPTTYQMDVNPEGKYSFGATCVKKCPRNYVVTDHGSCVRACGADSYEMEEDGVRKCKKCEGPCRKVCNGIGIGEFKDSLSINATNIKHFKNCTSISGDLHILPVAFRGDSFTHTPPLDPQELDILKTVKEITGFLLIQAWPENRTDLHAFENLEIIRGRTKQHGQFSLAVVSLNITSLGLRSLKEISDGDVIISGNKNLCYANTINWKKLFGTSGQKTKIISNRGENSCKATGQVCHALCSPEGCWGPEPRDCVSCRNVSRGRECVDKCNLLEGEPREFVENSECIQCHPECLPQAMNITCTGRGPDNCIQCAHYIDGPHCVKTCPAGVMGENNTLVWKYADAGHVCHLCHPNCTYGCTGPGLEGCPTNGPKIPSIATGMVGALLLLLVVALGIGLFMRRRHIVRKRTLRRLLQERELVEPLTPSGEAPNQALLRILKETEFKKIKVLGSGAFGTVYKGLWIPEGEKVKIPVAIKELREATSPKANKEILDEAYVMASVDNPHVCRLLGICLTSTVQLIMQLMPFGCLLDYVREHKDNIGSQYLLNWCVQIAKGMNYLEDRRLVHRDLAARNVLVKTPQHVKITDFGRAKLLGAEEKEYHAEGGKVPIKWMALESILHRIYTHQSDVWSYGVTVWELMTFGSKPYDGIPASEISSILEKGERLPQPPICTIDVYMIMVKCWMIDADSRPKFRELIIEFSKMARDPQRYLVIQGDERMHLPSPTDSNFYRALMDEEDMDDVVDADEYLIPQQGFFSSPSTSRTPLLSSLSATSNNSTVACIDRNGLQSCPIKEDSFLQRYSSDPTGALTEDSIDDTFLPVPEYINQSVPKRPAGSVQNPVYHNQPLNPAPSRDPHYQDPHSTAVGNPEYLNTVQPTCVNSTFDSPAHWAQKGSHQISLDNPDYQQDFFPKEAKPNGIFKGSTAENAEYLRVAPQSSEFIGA

Structure (SMILES)	IC50 [1] [nM]	IC50 [2] [nM]	IC50 [3] [nM]	IC50 [4] [nM]	IC50 [8] [nM]	IC50 at 72 h [9] [nM]	further results
COc1cc(N2CCC(N3CCN(C)CC3)CC2)ccc1Nc1ncc(Cl)c(-c2c[nH]c3ccccc23)n1	22.6	124	15.6	> 1000	–	–	–
CCS(=O)(=O)n1cc2c3ccc(cc31)OCCCCCCOc1cc(c(C)cc1N1CCOCC1)Nc1ncc(Cl)c-2n1	–	23.6	–	308	36	2080	IC50 [5]: 2000 nM; IC50 [6]: 52 nM; IC50 [7]: 644 nM; inhibition [10]: Dde; inhibition [11]: Dde; inhibition [12]: Dde; inhibition [13]: Dde; inhibition [14]: Dde; inhibition [15]: Dde
CCS(=O)(=O)n1cc(-c2nc(Nc3ccc(N4CCC(N5CCN(C)CC5)CC4)c(Cl)c3OC)ncc2Cl)c2ccccc21	> 1000	> 1000	> 1000	> 1000	–	–	–
CCS(=O)(=O)n1cc(-c2nc(Nc3cc(C(C)C)c(N4CCC(N5CCN(C)CC5)CC4)cc3OC)ncc2Cl)c2ccccc21	116	478	74.3	> 1000	–	–	–
C=CC(=O)Nc1cc(Nc2nccc(-c3cn(C)c4ccccc34)n2)c(OC)cc1N(C)CCN(C)C [OSIMERTINIB]	–	–	–	–	4270	3520	IC50 [5]: […]; IC50 [6]: 6070 nM; IC50 [7]: 5430 nM
CCS(=O)(=O)n1cc2c3cc(ccc31)OCCCCCOc1cc(ccc1N1CCOCC1)Nc1ncc(Cl)c-2n1	–	> 1000	–	> 1000	–	–	–
CCS(=O)(=O)n1cc(-c2nc(Nc3cc(Cl)c(N4CCC(N5CCN(C)CC5)CC4)cc3OC(C)C)ncc2Cl)c2ccccc21	8.1	30.8	2.1	413	2770	> 10000	–
COc1cc(N2CCC(N3CCN(C)CC3)CC2)ccc1Nc1ncc(Cl)c(-c2cn(S(=O)(=O)C3CC3)c3ccccc23)n1	33.3	222	32.6	> 1000	–	–	–
CCc1cc(Nc2ncc(Cl)c(-c3cn(S(=O)(=O)CC)c4ccccc34)n2)c(OC)cc1N1CCC(N2CCN(C)CC2)CC1	54.8	21.8	6.3	262	–	–	–
CCS(=O)(=O)n1cc2c3ccc(cc31)OCCCCCCOc1cc(c(C3CC3)cc1N1CCOCC1)Nc1ncc(Cl)c-2n1	–	56.4	–	> 1000	263	> 10000	–
CCS(=O)(=O)n1cc(-c2nc(Nc3cc(Cl)c(N4CCC(N5CCN(C)CC5)CC4)cc3C)ncc2Cl)c2ccccc21	4.7	1.6	16.3	547	410	1320	–
CCS(=O)(=O)n1cc(-c2nc(Nc3cc(C)c(N4CCC(N5CCN(C)CC5)CC4)cc3OC)ncc2Cl)c2ccccc21	69.2	1.5	2.7	55.9	–	–	–
CCOc1cc(N2CCC(N3CCN(C)CC3)CC2)c(Cl)cc1Nc1ncc(Cl)c(-c2cn(S(=O)(=O)CC)c3ccccc23)n1	12	4.2	7.5	344	3150	7860	–
COc1cc(N2CCC(N3CCN(C)CC3)CC2)ccc1Nc1ncc(Cl)c(-c2cn(S(C)(=O)=O)c3ccccc23)n1	1.9	41.9	5.5	> 1000	–	–	–
COc1cc(N2CCC(N3CCN(C)CC3)CC2)ccc1Nc1ncc(Cl)c(Nc2ccccc2P(C)(C)=O)n1 [BRIGATINIB]	–	–	–	–	610	1910	IC50 [5]: 1360 nM; IC50 [6]: 492 nM; IC50 [7]: 1450 nM
CCS(=O)(=O)n1cc2c3ccc(cc31)OCCCCCOc1cc(ccc1N1CCOCC1)Nc1ncc(Cl)c-2n1	–	19	–	> 1000	168	349	–
CCS(=O)(=O)n1cc2c3ccc(cc31)OCCCCCCCOc1cc(ccc1N1CCOCC1)Nc1ncc(Cl)c-2n1	–	89.9	–	> 1000	180	773	–
CCS(=O)(=O)n1cc2c3ccc(cc31)OCCCCCCOc1cc(c(F)cc1N1CCOCC1)Nc1ncc(Cl)c-2n1	–	28	–	885	66	2560	–
CCS(=O)(=O)n1cc2c3ccc(cc31)OCCCCCCOc1cc(c(C3CCCC3)cc1N1CCOCC1)Nc1ncc(Cl)c-2n1	–	165	–	> 1000	–	–	–
COc1cc(N2CCC(N3CCN(C)CC3)CC2)ccc1Nc1ncc(Cl)c(-c2cn(C(C)=O)c3ccccc23)n1	8.5	77.8	12.9	> 1000	–	–	–
CCS(=O)(=O)n1cc2c3ccc(cc31)OCCCCOc1cc(ccc1N1CCOCC1)Nc1ncc(Cl)c-2n1	–	> 1000	–	> 1000	–	–	–
CCc1cc(N2CCOCC2)c2cc1Nc1ncc(Cl)c(n1)-c1cn(S(=O)(=O)CC)c3cc(ccc13)OCCCCCCO2	–	32.1	–	> 1000	142	4640	–
CCS(=O)(=O)n1cc2c3ccc(cc31)OCCCCCCCCOc1cc(ccc1N1CCOCC1)Nc1ncc(Cl)c-2n1	–	142	–	> 1000	450	2440	–
CCS(=O)(=O)n1cc2c3cc(ccc31)OCCCCCCOc1cc(ccc1N1CCOCC1)Nc1ncc(Cl)c-2n1	–	> 1000	–	> 1000	–	–	–
CCS(=O)(=O)n1cc(-c2nc(Nc3ccc(N4CCC(N5CCN(C)CC5)CC4)cc3OC)ncc2Cl)c2ccccc21	5.6	34.8	5.6	> 1000	–	–	–
COc1cc(N2CCC(N3CCN(C)CC3)CC2)ccc1Nc1ncc(Cl)c(-c2cn(S(=O)(=O)C(C)C)c3ccccc23)n1	24.2	145	18	> 1000	–	–	–
CCS(=O)(=O)n1cc(-c2nc(Nc3ccc(N4CCC(N5CCN(C)CC5)CC4)c(Cl)c3)ncc2Cl)c2ccccc21	4.9	14.4	2.2	466	–	–	–
CCS(=O)(=O)n1cc2c3ccc(cc31)OCCCCCCOc1cc(ccc1N1CCOCC1)Nc1ncc(Cl)c-2n1	–	6.2	–	236	16	293	–
CCS(=O)(=O)n1cc2c3ccc(cc31)OCCCCCCOc1cc(c(Cl)cc1N1CCOCC1)Nc1ncc(Cl)c-2n1	–	57.8	–	> 1000	140	> 10000	–
CCS(=O)(=O)n1cc(-c2nc(Nc3cc(Cl)c(N4CCC(N5CCN(C)CC5)CC4)cc3OC)ncc2Cl)c2ccccc21	25.6	4.3	6.6	816	2610	4920	–
